Measurements taken from US20240285497A1, “METHOD FOR EVALUATING AN ABILITY OF A TEST SAMPLE TO TRIGGER A FOREIGN BODY REACTION IN THE SKIN, A METHOD FOR SCREENING A SUBSTANCE HAVING AN ABILITY TO INHIBIT A FOREIGN BODY REACTION IN THE SKIN, AND AN AGENT FOR INHIBITING A FOREIGN BODY REACTION IN THE SKIN” (priority 2021, published 2024).

System: matrix metalloprotease 9 mRNA
Test: MMP9 mRNA expression in HaCaT cells contacted with FICZ, quantitative PCR
Format: cell-based, human
Conditions: 24 hours
Protocol: First, HaCaT cells (CLI; Catalogue No.: 300493) were suspended in a DMEM medium at the density of 1×10^5 cell/mL, and 100 μL of the thus obtained suspension was added to each well of white 96 well plates (Thermo Fisher Scientific, MA, U.S.A.; Catalogue No.: 136102) so that the number of the cells in each well was 10,000 cells/well. In accordance with a conventional method, the cells were incubated at 37° C. for 24 hours in the presence of 5% CO2. Thereafter, the DMEM medium was removed, and 100 μL of a new DMEM medium containing FICZ at a predetermined concentration (i.e., 5 nM, 50 nM, 500 nM, and 5,000 nM) was added, followed by further incubation for 24 hours at 37° C. and 5% CO2. Meanwhile, negative controls were prepared by adding 100 μL of a DMEM medium containing no FICZ instead of the DMEM medium containing FICZ, which were also incubated for 24 hours at 37° C. and 5% CO2. […]
Quantitative PCR was carried out by using THUNDERBIRD Next SYBR qPCR Mix (Toyobo Co., Ltd., Osaka, Japan; Catalogue No. QPX-201) and StepOne Real-Time PCR System (Thermo Fisher Scientific, MA, USA). […] The reaction solution was used for quantitative PCR. Based on Ct (cycle threshold) value obtained by quantitative PCR, an amount of mRNA of each target gene was obtained. […]

6-formylindolo[3,2-b] carbazole [FICZ] was tested, and the “concentration necessary to observe a significant increase in the expression level of MMP9 mRNA” value was “about 5000 nM” and the “expression level of MMP9 mRNA, dependence on concentration” value (FICZ 5-5,000 nM) was “increased along with the concentration of FICZ”.
